Results: PMC9886892, “Imidazolium salts as an alternative for anti-Leishmania drugs: Oxidative and immunomodulatory activities” (Frontiers in Immunology, 2023)
Where two headings read alike, the source gives them in different places.

Assays:
[1] = tested on: L. amazonensis amastigotes in RAW 264.7 macrophages; experiment: Intramacrophage anti-amastigote activity; assay type: cell-based, Leishmania (L.) amazonensis
Experimental: The anti-amastigote assay was performed as previously described ([13]). Macrophages RAW 264.7 cell line (ATCC) were cultured in DMEM plus 10% fetal bovine serum (FBS), penicillin (100 U/mL) and streptomycin (100 µg/mL) until reaching 90% confluence, when were distributed into 96-well microplates at a concentration of 2 x 10^5 cells/well in the presence of DMEM. […] The leishmanicidal activity of macrophages was assessed by determining the number of viable parasites (4 replicates) using a hemocytometer.

human erythrocytes [2] = conditions: for RBC50 (CI 95%): concentration of compound that causes 50% of red blood cell hemolysis: 60 min
Experimental: Triton X-100 1% was used as positive control. The hemolytic assay was performed according to the procedure used by ([13]). […] The microplate was incubated at 37°C under agitation (90 rpm) for 60 min. Then, the suspension was centrifuged at 3,000 rpm for 5 min, and the absorbance of the supernatant was measured at 540 nm using a spectrophotometer EZ Read 400 from Biochrom. Triton X-100 1% and PBS were used as positive and negative control, respectively. […] The selectivity index (SI) (CC50 or RBC50/IC50 against L. amazonensis) were determined for each compound.

[3] = tested on: L. amazonensis promastigotes; experiment: Mitochondrial membrane potential (rhodamine 123, flow cytometry); assay type: cell-based, Leishmania (L.) amazonensis; conditions: IS 2-fold IC50, 6 h; amphotericin B 0.4 µM; hydrogen peroxide 2 mM
From the text: A total of 30,000 events were acquired in the region that corresponded to the parasites. Histograms were build using the CellQuest Pro software (Joseph Trotter, Scripps Research Institute, La Jolla, CA, USA).

[4] = tested on: L. amazonensis promastigotes; conditions: for L. amazonensis mortality in the screening test: 100 µM screening concentration
Experimental: (§1) Subsequently, 0.5 mg/mL of 3-(4,5-dimethylthiazol-2-yl)-2,5-diphenyltetrazolium bromide (MTT, Sigma-Aldrich®, St. Louis, MO, USA) was added and the incubations continued for an additional 4 h at 26 °C. The purple formazan product that was formed by the action of mitochondrial enzymes in living cells was solubilized by the addition of acidic isopropanol, and the absorbance at 570 nm was measured using a microplate reader spectrophotometer EZ Read 400 from Biochrom. […] The 50% inhibitory concentration (IC50) value for each compound was determined. The survival rate was calculated according to the formula: OD in treated group/OD of untreated group x 100. The 50% inhibitory concentration (IC50) value for each compound was determined by nonlinear regression analysis using GraphPad Prism 5.03 software.

[5] = tested on: Macrophages RAW 264.7 cell line
in vitro = conditions: mouse; for CC50 at 48 h: CC50 (CI 95%): concentration of compound that causes 50% of macrophage mortality
[6] = tested on: L. amazonensis promastigotes; experiment: microbe, parasite or virus in culture; conditions: Leishmania amazonensis, 48 h
Experimental: as §1

[7] = tested on: L. infantum chagasi promastigotes; experiment: microbe, parasite or virus in culture; conditions: Leishmania infantum; for IC50: 48 h
Experimental: as §1

[8] = tested on: L. infantum chagasi promastigotes; conditions: read-out: IC50 (CI 95%): concentration of compound that causes 50% of L. infantum chagasi promastigotes mortality, 48 h, MTT
Experimental: as §1

[9] = tested on: L. amazonensis promastigotes; design: method as in PMID 30077823; conditions: read-out: IC50 for L. amazonensis promastigotes (previous study); cited from earlier work
[10] = tested on: Macrophages RAW 264.7 cell line; conditions: read-out: CC50 towards macrophages (previous study); cited from earlier work
human erythrocytes [11] = conditions: cited from earlier work
[12] = tested on: L. amazonensis promastigotes; experiment: Cell membrane integrity (propidium iodide, flow cytometry); assay type: cell-based, Leishmania (L.) amazonensis; conditions: 1.8 µM (IC50), 48 h
Experimental: After 48 h at 26°C, the parasites were harvested and washed twice with PBS, resuspended and incubated with 100 μL of propidium iodide (PI – Sigma–Aldrich) 50 μg/mL at 26°C for 15 min. Following, each sample was completed with 400 μL of PBS and a total of 20,000 events were acquired and analyzed on BD FACScalibur flow cytometer and CellQuest Pro software. PI fluorescence intensity was quantified as the percentage of the fluorescence compared with untreated promastigotes ([30]). Results were obtained from two independent experiments performed in triplicate.

[13] = tested on: L. amazonensis promastigotes; experiment: Detection of reactive oxygen species production (DCF-DA, flow cytometry); assay type: cell-based, Leishmania (L.) amazonensis; conditions: IS 2-fold IC50, 6 h; amphotericin B 0.4 µM; hydrogen peroxide 2 mM
Experimental: ROS generation was quantified using the dye 2′,7′-dichlorofluorescein diacetate (DCF-DA, Sigma-Aldrich) and flow cytometer analysis ([13], [30], [31]). […] Then, cells were washed with PBS and incubated with 0.5 mL of 10 µM DCF-DA for 30 min at room temperature. After being washed with PBS, cells were resuspended in 0.5 mL PBS and analysed using a BD FACSCalibur (Becton–Dickinson, Rutherford, NJ, USA) flow cytometer and CellQuest Pro software (Joseph Trotter, Scripps Research Institute, La Jolla, CA, USA) using the blue argon-ion 488 nm laser with the FL1 filter channel. A total of 30,000 events were acquired in the region that corresponded to living parasite.

[14] = Leishmania amazonensis, RAW264.7, 48 h, read-out: IC50 (CI 95%): concentration of compound that causes 50% of L. amazonensis amastigotes mortality, infected RAW 264.7 macrophages, 48 h
[15] = read-out: mortality of L. amazonensis promastigotes, 5 µM, 48 h
[16] = read-out: IC50 (CI 95%): concentration of compound that causes 50% of L. infantum chagasi promastigotes mortality, promastigotes, 48 h, MTT

| Compound | IC50 [1, 14] [µM] | SI: selectivity index, ratio of CC50 for RBC hemolysis/IC50 for L. amazonensis amastigotes (human erythrocytes [2]) | SI: selectivity index, ratio of CC50 for RBC hemolysis/IC50 for L. amazonensis promastigotes (human erythrocytes [2]) | mitochondrial membrane potential (ΔΨm) alteration [3] | IC50 [4] [µM] | L. amazonensis mortality in the screening test ([4]; 48 h) | SI: selectivity index, ratio of CC50 for macrophage/IC50 for L. amazonensis amastigotes [5] | SI: selectivity index, ratio of CC50 for macrophage/IC50 for L. amazonensis promastigotes [5] | mortality at 5 µM [6, 15] [%] | IC50 [8] [µM] | also measured |
| --- | --- | --- | --- | --- | --- | --- | --- | --- | --- | --- | --- |
| CCCCCCCCCCn1cc[n+](CCCCCCCCCC)c1C.[Cl-] [(C10)2MImCl, 1,3-Didecyl-2-methylimidazolium chloride] | 0.2 | 105 | 11 | significant ΔΨm depolarization | 1.9 | 100% | 82 | 8.6 | 97 | – | RBC50 (CI 95%): concentration of compound that causes 50% of red blood cell hemolysis (human erythrocytes [2]; human red blood cells, 37°C): 20.9 (20-21.9) µM; viability at 48 h (in vitro): 94%; CC50 at 48 h (in vitro; RAW cells, 48 h, MTT): 16.4 µM; IC50 [7, 16]: 16.5 µM |
| CCCCCCCCCCCCCCCCn1cc[n+](C)c1 [C16MImCl, 1-hexadecyl-3-methylimidazolium chloride] | – | – | – | – | – | – | – | – | – | 9.9 | IC50 [9]: 1.23 µM |
| CCCCCCCCCCn1cc[n+](C)c1.CS(=O)(=O)[O-] [C10MImMeS, 1-decyl-3-methylimidazolium methanesulfonate] | 0.3 | – | > 8.6 | ΔΨm hyperpolarization | 11.6 | 100% | 256 | 6.6 | 60 | > 100 | concentration up to which no significant hemolysis (human erythrocytes [2]; human erythrocytes): up to 40 µM; RBC50 (CI 95%): concentration of compound that causes 50% of red blood cell hemolysis (human erythrocytes [2]; human red blood cells, 37°C): > 100 µM; concentration up to which more than 90% of the macrophages kept alive ([5]; mouse, 48 h): up to 50 µM; viability at 48 h (in vitro): 89%; CC50 at 48 h (in vitro; RAW cells, 48 h, MTT): 76.9 µM |
| CCCCn1cc[n+](C)c1.CS(=O)(=O)[O-] [C4MImMeS, 1-Butyl-3-methylimidazolium methanesulfonate] | – | – | – | – | – | without activity | – | – | – | – | – |
| CCCCCCCCCCCCCCCCn1cc[n+](C)c1.[Br-] [C16MImBr, 1-hexadecyl-3-methylimidazolium bromide] | – | 114 | 3.8 | significant ΔΨm depolarization | 6 | 100% | 80 | 2.7 | – | 29.7 | IC50 ([1]; read-out: IC50 (CI 95%): concentration of compound that causes 50% of L. amazonensis amastigotes mortality, infected RAW 264.7 macrophages, 48 h): 0.2 µM; RBC50 (CI 95%): concentration of compound that causes 50% of red blood cell hemolysis (human erythrocytes [2]; human red blood cells, 37°C): 22.8 (21.7-24) µM; mortality of L. amazonensis promastigotes ([4]; 5 µM, 48 h): 42%; CC50 at 48 h (in vitro; RAW cells, 48 h, MTT): 16 µM |
| CCCCCCCCCCCCCCCCn1cc[n+](C)c1C.[Cl-] [C16M2ImCl, 1-hexadecyl-2,3-dimethylimidazolium chloride] | 0.2 | 108 | 5.3 | significant ΔΨm depolarization | 4.1 | 100% | 99 | 4.8 | 85 | – | RBC50 (CI 95%): concentration of compound that causes 50% of red blood cell hemolysis (human erythrocytes [2]; human): 21.6 (20.8-22.5) µM; CC50 at 48 h (in vitro; RAW cells, 48 h, MTT): 19.8 µM; IC50 [7, 16]: 15.4 µM |
| CCCCCCCCCCCCCCCCn1cc[n+](C)c1 [C16MImPF6, 1-hexadecyl-3-methylimidazolium hexafluorophosphate] | 0.3 | 82.7 | 3.6 | significant ΔΨm depolarization | 6.9 | 100% | 56 | 2.4 | 37 | 26.3 | RBC50 (CI 95%): concentration of compound that causes 50% of red blood cell hemolysis (human erythrocytes [2]; human): 24.8 (22.9-26.8) µM; CC50 at 48 h (in vitro): 16.8 µM |
| CCCCCCCCCCCCCCCCn1cc[n+](C)c1 [C16MImNTf2, 1-hexadecyl-3-methylimidazolium bis(trifluoromethylsulfonyl)imide] | – | – | – | – | – | – | – | – | – | – | IC50 [9]: 1.64 µM |
| CCCCCCCCCCCCCCCCn1cc[n+](C)c1.CS(=O)(=O)[O-] [C16MImMeS, 1-hexadecyl-3-methylimidazolium methanesulfonate] | – | – | – | – | – | – | – | – | – | 10.8 | IC50 [9]: 0.75 µM; CC50 [10]: 11.5 µM; RBC50 erythrocytes (previous study) (human erythrocytes [11]): 36.9 µM |
| CCCCCCCCCCCCCCCCn1c(C)c(C)[n+](C)c1C.[Cl-] [C16M4ImCl, 1-hexadecyl-2,3,4,5-tetramethylimidazolium chloride] | – | 78 | 8.7 | significant ΔΨm depolarization | – | 100% | 89 | 10 | – | – | IC50 ([1]; Leishmania amazonensis, RAW264.7, 48 h, read-out: IC50 (CI 95%): concentration of compound that causes 50% of L. amazonensis amastigotes mortality): 0.2 µM; RBC50 (CI 95%): concentration of compound that causes 50% of red blood cell hemolysis (human erythrocytes [2]; human red blood cells, 37°C): 15.6 (14.5-16.8) µM; L. amazonensis integrity (panoptic stain) [12]: total lysis of the parasites; CC50 (in vitro): 17.8 µM; viability (in vitro): 90%; IC50 ([6]; read-out: IC50 (CI 95%): concentration of compound that causes 50% of L. amazonensis promastigotes mortality): 1.8 µM; mortality at 5 µM ([6]; read-out: mortality of L. amazonensis promastigotes): 95%; IC50 ([7]; read-out: IC50 (CI 95%): concentration of compound that causes 50% of L. infantum chagasi promastigotes mortality): 14.9 µM |
| C[C@@H]1[C@H](O)[C@@H](C)/C=C/C=C/C=C/C=C/C=C/C=C/C=C/[C@H](O[C@@H]2O[C@H](C)[C@@H](O)[C@H](N)[C@@H]2O)C[C@@H]2O[C@](O)(C[C@@H](O)C[C@@H](O)[C@H](O)CC[C@@H](O)C[C@@H](O)CC(=O)O[C@H]1C)C[C@H](O)[C@H]2C(=O)O [amphotericin B, reference compound] | – | – | – | mitochondrial depolarization | 0.4 | – | – | – | 100 | – | ROS production [13]: significant elevation in ROS production; mortality at 5 µM ([7]; read-out: mortality of L. infantum chagasi promastigotes): 100% |
| OO [H2O2, hydrogen peroxide, reference compound] | – | – | – | mitochondrial depolarization | – | – | – | – | – | – | ROS production [13]: significant elevation in ROS production |
| CCCCCCCCCCCCCCCCn1ccnc1 [C16Im, 1-hexadecylimidazole] | 0.2 | > 500 | > 6.8 | – | – | 100% | 275 | 3.8 | – | – | RBC50 (CI 95%): concentration of compound that causes 50% of red blood cell hemolysis (human erythrocytes [2]; human): > 100 µM; concentration causing significant parasite mortality ([4]; L. amazonensis promastigotes, 48 h): ≥ 10 µM; CC50 at 48 h (in vitro): 54.9 µM; IC50 [7, 16]: 8.3 µM |
| CCCCCCCCCCCCCCCC[n+]1ccccc1.O.[Cl-] [C16PyrCl, 1-hexadecylpyridinium chloride monohydrate, reference compound] | – | – | – | – | – | 100% | – | – | – | – | – |
| CCCCCCCCCCn1cc[n+](C)c1 [C10MImCl, 1-decyl-3-methylimidazolium chloride] | – | – | – | – | – | – | – | – | – | – | IC50 [9]: 2.31 µM; IC50 [7, 16]: 115 µM |
